Results from patent US20240132484A1, “BROAD SPECTRUM ANTIVIRAL COMPOUNDS TARGETING THE SKI COMPLEX” (priority 2020, published 2024).
Where “and” joins values, the source holds several entries; their conditions need not be identical. Equal entries are not always repeated. Where two headings read alike, the source gives them in different places.

Experiments:
SARS2 = type: cell-based, SARS-CoV-2; conditions: for Infection Data, Average, Mean percentage infection relative to DMSO control: Average of Exp 1 (SMW506) and Exp 2 (SMW507); for Infection Data, Percentage Infection Relative to Appropriate DMSO Control / Percentage Infection Relative to Appropriate DMSO Control with Avg Background Subtraction: single well; for Infection Data, Percentage Infection Relative to Appropriate DMSO Control: avg background subtraction; for Percentage Inhibition Average 1 μM / Screening data (Relative infection to DMSO controls) Average 1 μM: SARS2, 1 μM; for Screening data (Relative infection to DMSO controls) Average 1 μM / Screening data (Relative infection to DMSO controls) Average 5 μM / Screening data (Relative infection to DMSO controls) Average 10 μM / Screening data (Relative infection to DMSO controls) Average 25 μM / Screening data (Relative infection to DMSO controls) Average 50 μM / Average (relative infection to DMSO over the 5 tested concentrations): 100=DMSO control; for Percentage Inhibition Average 5 μM / Screening data (Relative infection to DMSO controls) Average 5 μM: SARS2, 5 μM; for Percentage Inhibition Average 10 μM / Screening data (Relative infection to DMSO controls) Average 10 μM: SARS2, 10 μM; for Percentage Inhibition Average 25 μM / Screening data (Relative infection to DMSO controls) Average 25 μM: SARS2, 25 μM; for Percentage Inhibition Average 50 μM / Screening data (Relative infection to DMSO controls) Average 50 μM: SARS2, 50 μM; for Average (relative infection to DMSO over the 5 tested concentrations): SARS2, average over 1 to 50 uM
cells (nuclei count) = conditions: for Toxicity Data, Average, Mean (percentage relative to appropriate DMSO control): average of Exp 1 and Exp 2, n=4; for Relative cell count to DMSO controls, Average 1 μM / Relative cell count to DMSO controls, Average 5 μM / Relative cell count to DMSO controls, Average 10 μM / Relative cell count to DMSO controls, Average 25 μM / Relative cell count to DMSO controls, Average 50 μM: toxicity data, 100=DMSO control; for Toxicity Data, Percentage Relative to Appropriate DMSO Control: single well; for Relative cell count to DMSO controls, Average (for correlation analysis): average value over the 5 tested concentrations (1 to 50 uM)

COc1ccc(CNCCc2ccccc2F)c(OCC(O)CN2CCOCC2)c1 (stereo not shown) [SILCS49]
Infection Data, Average, Mean percentage infection relative to DMSO control (SARS2; n=4, 1 uM): 90.24%
Infection Data, Average, Mean percentage infection relative to DMSO control (SARS2; n=4, 5 uM): 54.75%
Infection Data, Average, Mean percentage infection relative to DMSO control (SARS2; n=4, 10 uM): 29.10%
Infection Data, Average, Mean percentage infection relative to DMSO control (SARS2; n=4, 25 uM): 27.11%
Infection Data, Average, Mean percentage infection relative to DMSO control (SARS2; n=4, 50 uM): 13.54%
Infection Data, Percentage Infection Relative to Appropriate DMSO Control (SARS2; Exp 1 (SMW506), 1 uM): 101.13% and 94.70%
Infection Data, Percentage Infection Relative to Appropriate DMSO Control (SARS2; Exp 1 (SMW506), 5 uM): 55.30% and 50.40%
Infection Data, Percentage Infection Relative to Appropriate DMSO Control (SARS2; Exp 1 (SMW506), 10 uM): 38.04% and 34.18%
Infection Data, Percentage Infection Relative to Appropriate DMSO Control (SARS2; Exp 1 (SMW506), 25 uM): 27.25% and 33.31%
Infection Data, Percentage Infection Relative to Appropriate DMSO Control (SARS2; Exp 1 (SMW506), 50 uM): 9.17% and 7.35%
Infection Data, Percentage Infection Relative to Appropriate DMSO Control (SARS2; Exp 2 (SMW507), 1 uM): 67.31% and 97.84%
Infection Data, Percentage Infection Relative to Appropriate DMSO Control (SARS2; Exp 2 (SMW507), 5 uM): 52.91% and 60.38%
Infection Data, Percentage Infection Relative to Appropriate DMSO Control (SARS2; Exp 2 (SMW507), 10 uM): 23.33% and 20.87%
Infection Data, Percentage Infection Relative to Appropriate DMSO Control (SARS2; Exp 2 (SMW507), 25 uM): 29.98% and 17.91%
Infection Data, Percentage Infection Relative to Appropriate DMSO Control (SARS2; Exp 2 (SMW507), 50 uM): 19.58% and 18.05%
Percentage Inhibition Average 1 μM (SARS2): 9.76%
Screening data (Relative infection to DMSO controls) Average 1 μM (SARS2): 90.24
Percentage Inhibition Average 5 μM (SARS2): 45.25%
Screening data (Relative infection to DMSO controls) Average 5 μM (SARS2): 54.75
Percentage Inhibition Average 10 μM (SARS2): 70.90%
Screening data (Relative infection to DMSO controls) Average 10 μM (SARS2): 29.10
Percentage Inhibition Average 25 μM (SARS2): 72.89%
Screening data (Relative infection to DMSO controls) Average 25 μM (SARS2): 27.11
Percentage Inhibition Average 50 μM (SARS2): 86.46%
Screening data (Relative infection to DMSO controls) Average 50 μM (SARS2): 13.54
Average (relative infection to DMSO over the 5 tested concentrations) (SARS2): 42.95
Toxicity Data, Average, Mean (percentage relative to appropriate DMSO control) (cells (nuclei count); 1 uM): 104.43%
Relative cell count to DMSO controls, Average 1 μM (cells (nuclei count)): 104.43
Toxicity Data, Average, Mean (percentage relative to appropriate DMSO control) (cells (nuclei count); 5 uM): 113.44%
Relative cell count to DMSO controls, Average 5 μM (cells (nuclei count)): 113.44
Toxicity Data, Average, Mean (percentage relative to appropriate DMSO control) (cells (nuclei count); 10 uM): 120.89%
Relative cell count to DMSO controls, Average 10 μM (cells (nuclei count)): 120.89
Toxicity Data, Average, Mean (percentage relative to appropriate DMSO control) (cells (nuclei count); 25 uM): 115.31%
Relative cell count to DMSO controls, Average 25 μM (cells (nuclei count)): 115.31
Toxicity Data, Average, Mean (percentage relative to appropriate DMSO control) (cells (nuclei count); 50 uM): 98.89%
Relative cell count to DMSO controls, Average 50 μM (cells (nuclei count)): 98.89
Toxicity Data, Percentage Relative to Appropriate DMSO Control (cells (nuclei count); Exp 1 (SMW506), 1 uM): 91% and 100%
Toxicity Data, Percentage Relative to Appropriate DMSO Control (cells (nuclei count); Exp 1 (SMW506), 5 uM): 103% and 110%
Toxicity Data, Percentage Relative to Appropriate DMSO Control (cells (nuclei count); Exp 1 (SMW506), 10 uM): 111% and 115%
Toxicity Data, Percentage Relative to Appropriate DMSO Control (cells (nuclei count); Exp 1 (SMW506), 25 uM): 109% and 115%
Toxicity Data, Percentage Relative to Appropriate DMSO Control (cells (nuclei count); Exp 1 (SMW506), 50 uM): 97% and 101%
Toxicity Data, Percentage Relative to Appropriate DMSO Control (cells (nuclei count); Exp 2 (SMW507), 1 uM): 111% and 116%
Toxicity Data, Percentage Relative to Appropriate DMSO Control (cells (nuclei count); Exp 2 (SMW507), 5 uM): 115% and 126%
Toxicity Data, Percentage Relative to Appropriate DMSO Control (cells (nuclei count); Exp 2 (SMW507), 10 uM): 124% and 133%
Toxicity Data, Percentage Relative to Appropriate DMSO Control (cells (nuclei count); Exp 2 (SMW507), 25 uM): 112% and 125%
Toxicity Data, Percentage Relative to Appropriate DMSO Control (cells (nuclei count); Exp 2 (SMW507), 50 uM): 91% and 107%
Relative cell count to DMSO controls, Average (for correlation analysis) (cells (nuclei count)): 110.59

CC1=C(C(=O)NCc2ccccc2)C(c2ccc(C)o2)NC(=O)N1 (stereo not shown) [SILCS69]
Percentage Inhibition Average 1 μM (SARS2): 44.23%
Screening data (Relative infection to DMSO controls) Average 1 μM (SARS2): 55.77
Percentage Inhibition Average 5 μM (SARS2): 29.45%
Screening data (Relative infection to DMSO controls) Average 5 μM (SARS2): 70.55
Percentage Inhibition Average 10 μM (SARS2): 24.51%
Screening data (Relative infection to DMSO controls) Average 10 μM (SARS2): 75.49
Percentage Inhibition Average 25 μM (SARS2): −26.06%
Screening data (Relative infection to DMSO controls) Average 25 μM (SARS2): 126.06
Percentage Inhibition Average 50 μM (SARS2): −48.18%
Screening data (Relative infection to DMSO controls) Average 50 μM (SARS2): 148.18
Average (relative infection to DMSO over the 5 tested concentrations) (SARS2): 95.21
Relative cell count to DMSO controls, Average 1 μM (cells (nuclei count)): 114.56
Relative cell count to DMSO controls, Average 5 μM (cells (nuclei count)): 113.8
Relative cell count to DMSO controls, Average 10 μM (cells (nuclei count)): 108.32
Relative cell count to DMSO controls, Average 25 μM (cells (nuclei count)): 93.65
Relative cell count to DMSO controls, Average 50 μM (cells (nuclei count)): 79.5
Relative cell count to DMSO controls, Average (for correlation analysis) (cells (nuclei count)): 101.97

CCN(CC)CCN(Cc1ccc(C)o1)Cc1cccs1 [SILCS24]
Infection Data, Average, Mean (SARS2; Average of Exp 1-3, n 9, 1 uM): 68.53%
Infection Data, Average, Mean (SARS2; Average of Exp 1-3, n 9, 5 uM): 71.54%
Infection Data, Average, Mean (SARS2; Average of Exp 1-3, n 9, 10 uM): 70.96%
Infection Data, Average, Mean (SARS2; Average of Exp 1-3, n 9, 25 uM): 35.04%
Infection Data, Average, Mean (SARS2; Average of Exp 1-3, n 9, 50 uM): 19.26%
Percentage Infection Relative to Appropriate DMSO Control with Avg Background Subtraction (SARS2; Exp 1 (SMW475), 1 uM): 124.65% and 102.70% and 66.42%
Percentage Infection Relative to Appropriate DMSO Control with Avg Background Subtraction (SARS2; Exp 1 (SMW475), 5 uM): 90.16% and 99.17% and 50.26%
Percentage Infection Relative to Appropriate DMSO Control with Avg Background Subtraction (SARS2; Exp 1 (SMW475), 10 uM): 93.85% and 91.06% and 50.31%
Percentage Infection Relative to Appropriate DMSO Control with Avg Background Subtraction (SARS2; Exp 1 (SMW475), 50 uM): 20.92% and 16.99% and 16.36%
Percentage Infection Relative to Appropriate DMSO Control with Avg Background Subtraction (SARS2; Exp 2 (SMW477), 1 uM): 88.56% and 86.90% and 93.54%
Percentage Infection Relative to Appropriate DMSO Control with Avg Background Subtraction (SARS2; Exp 2 (SMW477), 5 uM): 78.38% and 98.62% and 72.17%
Percentage Infection Relative to Appropriate DMSO Control with Avg Background Subtraction (SARS2; Exp 2 (SMW477), 10 uM): 54.07% and 57.64% and 38.68%
Percentage Infection Relative to Appropriate DMSO Control with Avg Background Subtraction (SARS2; Exp 2 (SMW477), 50 uM): 18.59% and 11.16% and 9.24%
Percentage Infection Relative to Appropriate DMSO Control with Avg Background Subtraction (SARS2; Exp 3 (SMW478), 10 uM): 97.16% and 81.93% and 73.95%
Percentage Inhibition Average 1 μM (SARS2): 31.47%
Screening data (Relative infection to DMSO controls) Average 1 μM (SARS2): 68.53
Percentage Inhibition Average 5 μM (SARS2): 28.46%
Screening data (Relative infection to DMSO controls) Average 5 μM (SARS2): 71.54
Percentage Inhibition Average 10 μM (SARS2): 29.04%
Screening data (Relative infection to DMSO controls) Average 10 μM (SARS2): 70.96
Percentage Inhibition Average 25 μM (SARS2): 64.96%
Screening data (Relative infection to DMSO controls) Average 25 μM (SARS2): 35.04
Percentage Inhibition Average 50 μM (SARS2): 80.74%
Screening data (Relative infection to DMSO controls) Average 50 μM (SARS2): 19.26
Average (relative infection to DMSO over the 5 tested concentrations) (SARS2): 53.07
Relative cell count to DMSO controls, Average 1 μM (cells (nuclei count)): 133.02
Relative cell count to DMSO controls, Average 5 μM (cells (nuclei count)): 124
Relative cell count to DMSO controls, Average 10 μM (cells (nuclei count)): 120.3
Relative cell count to DMSO controls, Average 25 μM (cells (nuclei count)): 96.21
Relative cell count to DMSO controls, Average 50 μM (cells (nuclei count)): 76.48
Toxicity Data, Average, Mean (cells (nuclei count); Average of Exp 1-3, n 9, 1 uM): 133.02%
Toxicity Data, Average, Mean (cells (nuclei count); Average of Exp 1-3, n 9, 5 uM): 124.00%
Toxicity Data, Average, Mean (cells (nuclei count); Average of Exp 1-3, n 9, 10 uM): 120.30%
Toxicity Data, Average, Mean (cells (nuclei count); Average of Exp 1-3, n 9, 25 uM): 96.21%
Toxicity Data, Average, Mean (cells (nuclei count); Average of Exp 1-3, n 9, 50 uM): 76.48%
Relative cell count to DMSO controls, Average (for correlation analysis) (cells (nuclei count)): 110.00
